The source of these data is US20220096454A1, “CARBOXYLIC ACID DERIVATIVES” (Merck Patent GmbH, priority 2018, published 2022).

The structures appear in SMILES notation.

One assay deals with Tankyrases. The note with it: read-out: EC50 [M] TNKS cellular assay; increase of Axin2 level in colon carcinoma cell line DLD1, 24 hours.
The target in a further assay is T1, TNKS1 (Homo sapiens, UniProt O95271).
T1 construct: GST-tagged Tnks-1 (1023-1327 aa, prepared in-house); made in house
Put plainly: TNKS1 activity ELISA (autoparsylation assay). It is filed as biochemical. The note with it: GST-tagged Tnks-1 (1023-1327 aa), 10 μM bio-NAD, 1 hour at 30° C. As to the method:
(§1) Description of the TNKS1 and TNKS2 ELISA Assay
(§2) Biochemical activity testing of TNKS 1 and 2: activity ELISA (Autoparsylation assay)
(§3) For analysis of autoparsylation activity of TNKS 1 and 2 an activity ELISA is performed: In the first step GST tagged TNKS is captured on a Glutathione coated plate. Then the activity assay with biotinylated NAD is performed in the absence/presence of the compounds. During the enzymatic reaction GST tagged TNKS transfers biotinylated ADP-ribose to itself from biotinylated NAD as co-substrate. For the detection streptavidin-HRP conjugate is added that binds to the biotinylated TNKS and is thereby captured to the plates. The amount of biotinylated resp. autoparsylated TNKS is detected with a luminescence substrate for HRP. The level of the luminescence signal correlates directly with the amount of autoparsylated TNKS and therefore with activity of TNKS.
(§4) The activity ELISA is performed in 384 well Glutathione coated microtiter plates (Express capture Glutathione coated plate, Biocat, Heidelberg, Germany). The plates are pre-equilibrated with PBS. […] The plates are washed 3 times with PBS-Tween-20. The wells are blocked by incubation at room temperature for 20 minutes with 50 μl blocking buffer (PBS, 0.05% Tween-20, 0.5% BSA). Afterwards the plates are washed 3 times with PBS-Tween-20. […] The reaction is stopped by 3 times washing with PBS-Tween-20. For the detection 50 μl of 20 ng/μl Streptavidin, HRP conjugate (MoBiTec, Göttingen, Germany) in PBS/0.05% Tween-20/0.01% BSA are added and the plates are incubated for 30 minutes at room temperature. After three times washing with PBS-Tween-20 50 μl of SuperSignal ELISA Femto Maximum sensitivity substrate solution (ThermoFisherScientific (Pierce), Bonn, Germany) are added. Following a 1 minute incubation at room temperature luminescence signals are measured with an Envision multimode reader (Perkin Elmer LAS Germany GmbH) at 700 nm. The full value used is the inhibitor-free reaction. […] The inhibitory values (IC50) are determined using either the program Symyx Assay Explorer® or Condosseo® from GeneData.

A further assay addresses T2, TNKS2 (Homo sapiens, UniProt Q9H2K2).
T2 construct: GST-tagged Tnks-2 (873-1166 aa, prepared in-house); made in house
Put plainly: TNKS2 activity ELISA (autoparsylation assay). The settings on record: GST-tagged Tnks-2 (873-1166 aa), 10 μM bio-NAD, 1 hour at 30° C. It is filed as biochemical. How it is done:
as §1, §2, §3, §4

T1 sequence (O95271 1023-1327): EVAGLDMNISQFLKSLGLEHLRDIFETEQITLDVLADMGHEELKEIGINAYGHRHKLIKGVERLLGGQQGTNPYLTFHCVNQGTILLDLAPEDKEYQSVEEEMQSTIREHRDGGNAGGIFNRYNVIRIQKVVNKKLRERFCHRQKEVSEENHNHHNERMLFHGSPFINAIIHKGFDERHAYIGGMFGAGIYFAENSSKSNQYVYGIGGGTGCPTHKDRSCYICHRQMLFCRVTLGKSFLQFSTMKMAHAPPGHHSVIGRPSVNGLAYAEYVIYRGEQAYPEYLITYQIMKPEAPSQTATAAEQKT
T2 sequence (Q9H2K2 873-1166): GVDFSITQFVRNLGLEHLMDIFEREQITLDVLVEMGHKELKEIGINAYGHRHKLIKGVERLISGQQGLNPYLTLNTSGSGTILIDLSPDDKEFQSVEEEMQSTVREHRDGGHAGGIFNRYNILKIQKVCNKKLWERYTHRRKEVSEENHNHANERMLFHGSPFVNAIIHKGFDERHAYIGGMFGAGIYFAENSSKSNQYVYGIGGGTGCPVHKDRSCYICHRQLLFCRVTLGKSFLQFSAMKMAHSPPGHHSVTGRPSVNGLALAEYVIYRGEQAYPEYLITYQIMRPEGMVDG
Description for Tankyrases: Measurement of Cellular Inhibition of Tankyrase
Cells of the colon carcinoma cell line DLD1 are plated in 96 well plates with 1.5×10^4 cells per well. Next day, cells are treated with a serial dilution of test compound in seven steps as triplicates with a final DMSO concentration of 0.3%. […] The amount of isolated Axin2 protein is determined in a Luminex^200 machine (Luminex Corporation) according to the manufacturer's instruction by counting 100 events per well. […] As controls cells are treated with solvent alone (neutral control) and with a Tankyrase reference inhibitor IWR-2 (3E−06 M) which refers as control for maximum increase of Axin2. For analysis, the obtained data are normalized against the untreated solvent control and fitted for determination of the EC50 values using the Assay Explorer software (Accelrys).

For the molecule `CN(C(=O)N1CCC(C(=O)c2ccc3cc(C(=O)O)n(C)c3c2)CC1)c1ccc(F)cc1` [Compound C1, 6-{1-[(4-Fluoro-phenyl)-methyl-carbamoyl]-piperidine-4-carbonyl}-1-methyl-1H-indole-2-carboxylic Acid], in the assay with Tankyrases, the half-maximal effective concentration (EC50) is 2.1e-07 M. Also, the concentration for half-maximal inhibition (IC50) on TNKS1 turned out to be 3.5 nM; at TNKS2 it was 1.1 nM.
Taken in the same sequence, the figures for `CCN(C(=O)N1CCC(C(=O)c2ccc3cc(C(=O)O)n(C)c3c2)CC1)c1ccc(F)cc1` [Compound C2, 6-{1-[Ethyl-(4-fluoro-phenyl)-carbamoyl]-piperidine-4-carbonyl}-1-methyl-1H-indole-2-carboxylic Acid] were 1.9e-08 M, 0.67 nM and 0.49 nM.
Taken in the same sequence, the figures for `COc1ccc(N(C)C(=O)N2CCC(C(=O)c3ccc4cc(C(=O)O)n(C)c4c3)CC2)cc1` [Compound C3, 6-{1-[(4-Methoxy-phenyl)-methyl-carbamoyl]-piperidine-4-carbonyl}-1-methyl-1H-indole-2-carboxylic Acid] were 1.3e-07 M, 1.8 nM and 2.7 nM.
Taken in the same sequence, the figures for `CN(C(=O)N1CCC(C(=O)c2ccc3c(c2)cc(C(=O)O)n3C)CC1)c1ccc(F)cc1` [Compound C5, 5-{1-[(4-Fluoro-phenyl)-methyl-carbamoyl]-piperidine-4-carbonyl}-1-methyl-1H-indole-2-carboxylic acid] were 7.4e-08 M, 1 nM and 1.4 nM.
Consider `CCN(C(=O)N1CCC(C(=O)c2ccc3c(c2)cc(C(=O)O)n3C)CC1)c1ccc(F)cc1` [Compound C6, 5-{1-[Ethyl-(4-fluoro-phenyl)-carbamoyl]-piperidine-4-carbonyl}-1-methyl-1H-indole-2-carboxylic Acid], for which the 50% effective concentration (EC50) with Tankyrases is 5.9e-09 M. In addition, the half-maximal inhibitory concentration (IC50) turned out to be 0.41 nM against TNKS1 and 1.4 nM on TNKS2.
On the same counts, the results for `COc1ccc(N(C)C(=O)N2CCC(C(=O)c3ccc4c(c3)cc(C(=O)O)n4C)CC2)cc1` [Compound C7, 5-{1-[(4-Methoxy-phenyl)-methyl-carbamoyl]-piperidine-4-carbonyl}-1-methyl-1H-indole-2-carboxylic Acid] are 6.31e-08 M, 1.3 nM and 1.3 nM.
Taken in the same sequence, the figures for `CN(C(=O)N1CCC(C(=O)c2ccc3c(C(=O)O)nn(C)c3c2)CC1)c1ccc(F)cc1` [Compound C9, 6-{1-[(4-Fluoro-phenyl)-methyl-carbamoyl]-piperidine-4-carbonyl}-1-methyl-1H-indazole-3-carboxylic Acid] were 4.9e-06 M, 3.29 nM and 1.66 nM.
Taken in the same sequence, the figures for `CCN(C(=O)N1CCC(C(=O)c2ccc3c(C(=O)O)nn(C)c3c2)CC1)c1ccc(F)cc1` [Compound C10, 6-{1-[Ethyl-(4-fluoro-phenyl)-carbamoyl]-piperidine-4-carbonyl}-1-methyl-1H-indazole-3-carboxylic Acid] were 4.6e-07 M, 0.744 nM and 0.432 nM.
`COc1ccc(N(C)C(=O)N2CCC(C(=O)c3ccc4c(C(=O)O)nn(C)c4c3)CC2)cc1` [Compound C11, 6-{1-[(4-Methoxy-phenyl)-methyl-carbamoyl]-piperidine-4-carbonyl}-1-methyl-1H-indazole-3-carboxylic Acid]: in the assay on Tankyrases, the concentration for a half-maximal effect (EC50) is 3.9e-06 M. For the same molecule, the results for the IC50 against TNKS1 and against TNKS2 were 1.4 nM and 0.74 nM, respectively.
In the case of `CN(C(=O)N1CCC(C(=O)c2ccc3c(c2)c(C(=O)O)nn3C)CC1)c1ccc(F)cc1` [Compound C13, 5-{1-[(4-Fluoro-phenyl)-methyl-carbamoyl]-piperidine-4-carbonyl}-1-methyl-1H-indazole-3-carboxylic Acid], the results for the IC50 against TNKS1 and against TNKS2 were 115 nM and 49.9 nM, respectively.
Turning to `CCN(C(=O)N1CCC(C(=O)c2ccc3c(c2)c(C(=O)O)nn3C)CC1)c1ccc(F)cc1` [Compound C14, 5-{1-[Ethyl-(4-fluoro-phenyl)-carbamoyl]-piperidine-4-carbonyl}-1-methyl-1H-indazole-3-carboxylic Acid], the EC50 in the assay on Tankyrases is 9.4e-06 M. Besides, the IC50 on TNKS1 was 12.4 nM; against TNKS2 it was 5.91 nM.
Taken in the same sequence, the figures for `COc1ccc(N(C)C(=O)N2CCC(C(=O)c3ccc4c(c3)c(C(=O)O)nn4C)CC2)cc1` [Compound C15, 5-{1-[(4-Methoxy-phenyl)-methyl-carbamoyl]-piperidine-4-carbonyl}-1-methyl-1H-indazole-3-carboxylic Acid] were 7.1e-06 M, 43 nM and 19 nM.
Taken in the same sequence, the figures for `CCN(C(=O)N1CCC(C(=O)c2ccc3c(c2)c(C(=O)O)nn3C)CC1)c1ccc(OC)cc1` [Compound C16, 5-{1-[Ethyl-(4-methoxy-phenyl)-carbamoyl]-piperidine-4-carbonyl}-1-methyl-1H-indazole-3-carboxylic Acid] were 9.7e-07 M, 9.7 nM and 4.5 nM.
`CN(C(=O)N1CCC(C(=O)c2ccc3cnn(C)c3c2)CC1)c1ccc(C(=O)O)cc1` [Compound C17, 4-{Methyl-[4-(1-methyl-1H-indazole-6-carbonyl)-piperidine-1-carbonyl]-amino}-benzoic Acid]: the 50% effective concentration (EC50) in the assay with Tankyrases stood at 2.07e-07 M. Further, the 50% inhibitory concentration (IC50) on TNKS1 amounted to 1.32 nM; against TNKS2 it was 0.798 nM.
On the same counts, the results for `CN(C(=O)N1CCC(C(=O)c2ccc3cnn(C)c3c2)CC1)c1cccc(C(=O)O)c1` [Compound C19, 3-{Methyl-[4-(1-methyl-1H-indazole-6-carbonyl)-piperidine-1-carbonyl]-amino}-benzoic Acid] are 1.4e-06 M, 2.2 nM and 1.4 nM.
On the same counts, the results for `CCN(C(=O)N1CCC(C(=O)c2ccc3cnn(C)c3c2)CC1)c1cccc(C(=O)O)c1` [Compound C20, 3-{Ethyl-[4-(1-methyl-1H-indazole-6-carbonyl)-piperidine-1-carbonyl]-amino}-benzoic Acid] are 1.93e-07 M, 0.58 nM and 0.65 nM.
On the same counts, the results for `CN(C(=O)N1CCC(C(=O)c2ccc3cnn(C)c3c2)CC1)c1ccc(C(=O)O)nc1` [Compound C21, 5-{Methyl-[4-(1-methyl-1H-indazole-6-carbonyl)-piperidine-1-carbonyl]-amino}-pyridine-2-carboxylic Acid] are 1.5e-05 M, 37 nM and 14 nM.
On to `CN(C(=O)N1CCC(C(=O)c2ccc3c(cnn3C)c2)CC1)c1ccc(C(=O)O)cc1` [Compound C22, 4-{Methyl-[4-(1-methyl-1H-indazole-5-carbonyl)-piperidine-1-carbonyl]-amino}-benzoic Acid], for which the EC50 in the assay with Tankyrases was 3.46e-07 M. Further, the figures for the IC50 against TNKS1 and at TNKS2 were 7.6 nM and 3.9 nM, respectively.
On the same counts, the results for `CN(C(=O)N1CCC(C(=O)c2ccc3c(cnn3C)c2)CC1)c1cccc(C(=O)O)c1` [Compound C24, 3-{Methyl-[4-(1-methyl-1H-indazole-5-carbonyl)-piperidine-1-carbonyl]-amino}-benzoic Acid] are 6.4e-07 M, 1.3 nM and 0.63 nM.
Take `CCN(C(=O)N1CCC(C(=O)c2ccc3c(cnn3C)c2)CC1)c1cccc(C(=O)O)c1` [Compound C25, 3-{Ethyl-[4-(1-methyl-1H-indazole-5-carbonyl)-piperidine-1-carbonyl]-amino}-benzoic Acid]: the concentration for a half-maximal effect (EC50) with Tankyrases worked out at 4.87e-08 M. The IC50 against TNKS1 stood at 1.8 nM; at TNKS2, 0.89 nM.
Turning to `CN(C(=O)N1CCC(C(=O)c2ccc3ncn(C)c3c2)CC1)c1cccc(C(=O)O)c1` [Compound C28, 3-{Methyl-[4-(3-methyl-3H-benzimidazole-5-carbonyl)-piperidine-1-carbonyl]-amino}-benzoic Acid], the values for the half-maximal inhibitory concentration (IC50) against TNKS1 and against TNKS2 were 53 nM and 23 nM, respectively.
As for `CN(C(=O)N1CCC(C(=O)c2ccc3c(c2)ncn3C)CC1)c1cccc(C(=O)O)c1` [Compound C32, 3-{Methyl-[4-(1-methyl-1H-benzimidazole-5-carbonyl)-piperidine-1-carbonyl]-amino}-benzoic Acid], the IC50 at TNKS1 is 19 nM; at TNKS2, 7.8 nM.
